According to patent publication US9464121B2, “Compositions and methods for treating erectile dysfunction” (priority 2007, dated 2016):
Entries after “also recorded” stand apart in the source; their conditions may differ. Structures can show the parent of a compound that is named as a salt.

Tests used:
corpus cavernosum [1] = assay: In vitro corpus cavernosum assay for smooth muscle relaxation (isolated organ chamber, phenylephrine-contracted tissue); format: cell-based, Wistar adult male rats
Procedure: The effect of polypeptides on corpus cavernosum contractile activity in vitro was analyzed in corpus cavernosum tissue harvested from Wistar adult male rats. Tissue was vertically positioned in an isolated organ chamber under the conditions described below. Adult male Wistar rats, aged 1.5-2 months and 250-350 g in weight were sacrificed by cervical dislocation and the penis was removed from the base, yielding about 2 cm of isolated tissue. The penile tissue was dissected under a Zeiss STEMI DV4 stereoscopic magnifying glass. The tunica albuginea, which protects the cavernous and spongious corpuses, was gently removed. The cavernous bodies were removed from their central position, obtaining two fragments of equal length and diameter, which were then transferred to a Tyrode physiological solution properly oxygenated (mix of 95% O2 and 5% CO2), at 37° C. at pH 7.4.
The cavernous segments were tied with silk at their distal and proximal extremes and immersed in a Tyrode physiologic solution in the chambers. The distal part was tied to the connecting rod and the proximal portion was connected to the isometric contraction transducer (TRI 201/0-25 g) connected to an analogue/digital interphase Power Lab/4SP Ad instrument, making it possible to store and analyse the registered signals by the use of Chart 5 software. Essentially, the fragments were connected to a analogic tension transducer, which transferred its signal to a Power Lab-Letica interphase, which records, graphs and stores the information generated by the physiologic preparation in force/time (g/min scale).
Prior to assaying the polypeptides, the isolated corpus cavernosum samples were stabilized as follows. After placing the corpus cavernosum in the isolated organ chamber, a 0.5 g tension at a normal velocity (1:1 proportion) was applied for one hour. During this time the basal tension and oxygenation (10 ml/min) remained constant. After the first 20 minutes, the preparation was washed using Tyrode physiologic solution, the tension was fixed and the procedure was repeated every 20 minutes for a total of 4 times. In the final washing process, in Chart 5 control system, the recording speed was modified from 10× to 1×.
The ability of f40/7841 to induce smooth muscle relaxation was assayed in the corpus cavernosum assay described in Example 2 in the presence of 50 μM phenylephrine, a pharmacological agonist of the alpha-adrenergic receptor that induces smooth muscle contraction.
To determine the relaxation potential it was necessary to induce first a maximum contractile response (control), in the presence of a drug that activates α-adrenergic receptors, phenylephrine (50 μM). The obtained results of the experimental series are statistically analyzed with a statistical significance of P<0.05, and graphed with GraphPad Prim.V.3.02 software.

C2C12 myoblasts = assay: Intracellular calcium determination with Fluo-3AM (confocal microscopy); format: cell-based
Procedure: To confirm that the f40/7841 polypeptide had no effect on calcium flux, C2C12 myoblasts were treated with f40/7841 polypeptide and intracellular calcium levels were assayed using the calcium-sensitive fluorchrome, Fluo-3AM. For the intracellular Ca^2+ measurements, a Confocal LSM 510 Meta Confocal (Zeiss, Jena, Alemania) microscope with a lasing line excitation of 488 nm was used. C2C12 cells were seeded in 60 mm culture dishes (Nalge Nunc International, Rochester, N.Y.) and cultured for 48 hours at which time each plate contained about 250,000 cells. The cells were loaded with fluorochrome in concentration of 4 μM fluo-3AM (Sigma) in 0.5% Me2SO and 0.1% of pluronic acid F-127 for 30 minutes at 37° C.; washed three times with a modified Dulbecco's solution with 10% of fetal bovine serum and returned to the incubator.
The fluorescence of Fluo-3AM was stimulated at 488 nm and measured at 515 nm using a bandpass filter. The intracellular Ca^2+ was measured for 10 seconds, followed by the addition of 1 μM f40/7841 polypeptide and 1.5 mM of carbachol. The Ca^2+ changes were monitored for 2 minutes and the images were taken every 1.5 sec. The calcium ionophore 4-Br-A23187 (5 μM) followed by 10 mM EGTA were then added to obtain the maximum calcium excitation (Fmax) and the minimum fluorescence (Fmin), respectively. The intracellular [Ca^2+] of fluorescence (F) obtained by the used f40/7841 was calculated in the following way: intracellular [Ca^2+]=Kd*(*F−F*min)/(*F*max−*F*), assuming 450 nM. *Kd* for the fluo-3AM, the concentrations were calculated in cellular populations that contained at least 10 cells.

[2] = target: T1, alpha 7 nicotinic acetylcholine receptor (α7nAch) (Homo sapiens, UniProt P36544); assay: Whole-cell patch clamp of PC12 cells engineered to express the alpha 7 nicotinic acetylcholine receptor; format: cell-based
T1 construct: expressed in transfected cells; host or cells: PC12 cells
Procedure: The ability of the f40/7841 polypeptide to activate nicotinic acetylcholine receptors (nAChR) was assayed by whole cell patch clamp analysis of PC12 cells that had been engineered to express the alpha 7 nicotinic acetylcholine receptor (α7nAch). PC12 cells were transfected and cultured for 48 hours in an 80% of MEM, solution that contained (mM): 150 NaCl, 5.4 KCl, 2.0 CaCl2, 1.0 MgCl2, 10 glucose and 10 Hepes (7.4), 2 mM, and 10% of fetal bovine serum at 37° C. (Trifaro et al. In vitro Cell Dev. Biol. 1990). The cells were incubated for one hour at 22° C. before starting the experiments. The current changes were detected through a whole-cell patch-clamp system through a Warner PC-501^a amplifier and an inverted Olympus 9° 70 microscope. The membrane potential was adjusted to −60 mV; the current was recorded at intervals of 5 μs and it was filtered at 2 Kh using a computer connected to a recording system through an acquisition card Digidata 9.0 (Axon Instrument, Inc) and the software PC 9 (Axon Instrument, Inc). The stock solution for the assays with the peptides were kept refrigerated at 4° C. and the micropipettes contained an internal solution of: 140 mM NaCl, 5 mM KCl, 2 mM CaCl2, 1.5 mM MgCl2, and 10 mM HEPES, pH 7.4.
The purified f40/7841 polypeptide was purified according to the method in Example 1. 0.1 mg of the polypeptide was diluted in 100 μl. of sterile PBS at pH 7.4. […]

corpus cavernosum [3] = assay: In vitro corpus cavernosum assay for smooth muscle relaxation (isolated organ chamber, phenylephrine-contracted tissue); format: cell-based, Wistar adult male rats; details: phenylephrine 5 μM, atropine 1 μM, polypeptide 1 μgml (FIG. 13)

T1 sequence (P36544 23-502): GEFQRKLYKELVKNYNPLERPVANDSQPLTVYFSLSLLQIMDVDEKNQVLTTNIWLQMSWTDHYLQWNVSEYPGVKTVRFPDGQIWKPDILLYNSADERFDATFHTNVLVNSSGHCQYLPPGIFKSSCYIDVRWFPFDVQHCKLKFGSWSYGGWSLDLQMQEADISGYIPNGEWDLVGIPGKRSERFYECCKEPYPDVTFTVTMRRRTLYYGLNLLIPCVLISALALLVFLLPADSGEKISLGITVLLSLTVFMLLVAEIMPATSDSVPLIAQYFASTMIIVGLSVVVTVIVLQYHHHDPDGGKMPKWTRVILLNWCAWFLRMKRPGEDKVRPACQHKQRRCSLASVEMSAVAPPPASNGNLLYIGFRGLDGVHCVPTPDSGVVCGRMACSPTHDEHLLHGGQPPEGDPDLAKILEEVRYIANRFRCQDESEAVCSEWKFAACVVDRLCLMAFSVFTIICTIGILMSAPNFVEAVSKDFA

Question: `CCCc1nn(C)c2c(=O)[nH]c(-c3cc(S(=O)(=O)N4CCN(C)CC4)ccc3OCC)nc12` [sildenafil citrate, 1-[4-ethoxy-3-(6,7-dihydro-1-methyl-7-oxo-3-propyl-1H-pyrazolo[4,3-d]pyrimidin-5-yl)phenylsulfonyl]-4-methylpiperazine] was tested. Which “contractile response after sildenafil citrate alone” value (corpus cavernosum [1]; 1 μM, after 50 μM phenylephrine, over a period of 25-30 minutes (FIG. 1)) did it give?
Answer: Its value is “slow decrease of the contractile response”.

Question: And the “concentration of sildenafil citrate alone required for a relaxation rate comparable to f40/7841 plus 1 μM sildenafil citrate” value (corpus cavernosum [1]; after 50 μM phenylephrine, typical value)?
Answer: The value was 100 µM.

Question: How did the “tonic response to phenylephrine in the presence of atropine” value (corpus cavernosum [1]; atropine 1 uM added after 40 minutes of phenylephrine (FIG. 13, upper tracing)) turn out when `CN1[C@@H]2CC[C@H]1C[C@@H](OC(=O)C(CO)c1ccccc1)C2` (some centres unmarked) [atropine] was run?
Answer: The value was “gradually reduced over time”.

Question: For `CNc1c(Br)cc2oc(C[C@H]3OC4(CC[C@H]3C)O[C@H]([C@H](C)C(=O)c3ccc[nH]3)[C@H](C)C[C@H]4C)nc2c1C(=O)O` (some centres unmarked) [4-Br-A23187], which “Fluo-3AM fluorescence (calcium) after ionophore” value (C2C12 myoblasts; 4-Br-A23187 5 μM, positive control (FIG. 17)) is on record?
Answer: Its value is “sharp spike of fluorescence”.

Question: Which potassium current ([2]; 10 μM carbachol, positive control, membrane potential −60 mV (FIG. 15)) does the source give for `C[N+](C)(C)CCOC(N)=O` [carbachol] here?
Answer: Its potassium current is 10 pA.

Question: Which “contractile response of corpus cavernosum” value (corpus cavernosum [1]; phenylephrine 50 μM (FIG. 7, FIG. 9)) does the source give for `CNC[C@H](O)c1cccc(O)c1` [phenylephrine] here?
Answer: The value was “phasic contractile response followed by a steadily maintained tonic response; also recorded: quick phasic contraction”.

Question: Which “effect on ionophore-induced fluorescence spike” value (C2C12 myoblasts; 10 mM EGTA added after 4-Br-A23187 (FIG. 17)) does the source give for `O=C(O)CN(CCOCCOCCN(CC(=O)O)CC(=O)O)CC(=O)O` [EGTA] here?
Answer: The value was “abolished”.

B1: f40/7841 (protein)
chain: GDSLDPAEFACADDIDQAELLKNNDICLQCEDLHKEGLVFSLCKTNCFSTEYFQHCVKDLEEAKKEPPE
modifications: also: blocked N-terminus, not given here
Question: What does the source list for B1?
Answer: ability to induce relaxation in the presence of atropine (corpus cavernosum [3]): attenuated; rapid potassium current ([2]; 0.1 μg/ml polypeptide, membrane potential −60 mV (FIG. 16, in the presence of carbachol)): 500 pA; ability to induce relaxation, atropine added prior to phenylephrine (corpus cavernosum [1]; 1 μM atropine, then phenylephrine 50 μM, polypeptide 2 μg/ml after twenty minutes (FIG. 14)): attenuated; effect on tonic contraction (relaxation) (corpus cavernosum [1]; 2 μg/ml added after 20 minutes of 50 μM phenylephrine (FIG. 10)): rapid decrease in tonic contraction; relaxation of contracted tissue in the presence of L-NAME (nitric oxide synthase inhibitor) (corpus cavernosum [1]; phenylephrine, then L-NAME 10 mM, then polypeptide 0.02, 0.2 or 2 μg/ml (FIG. 11, FIG. 12), listed as f40/7481): did not induce a decrease in contraction; also recorded: abolished; contractile response on co-addition with sildenafil citrate, compared to sildenafil citrate alone (corpus cavernosum [1]; polypeptide 2 μg/ml plus 1 μM sildenafil citrate, after 50 μM phenylephrine (FIG. 1)): significant decrease in the contractile response; calcium flux (intracellular Ca2+, Fluo-3AM fluorescence) (C2C12 myoblasts; 1 μM polypeptide and 1.5 mM carbachol, monitored for 2 minutes (FIG. 17)): did not induce calcium flux
